In patent US9695155B2, “Herbicidal substituted pyrimidinyloxy benzene compounds” (E. I. DU PONT DE NEMOURS AND COMPANY, priority 2013, dated 2017):

Tests used:
rice = test: Test C flooded paddy test; assay type: in vivo, Oryza sativa; settings: Flood, scale 0 to 100 (0 no effect, 100 complete control), 13 to 15 days
Outline: (§1)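 Visual injury ratings against untreated controls, taken 13 to 15 days after compound was added to paddy water standing 3 cm above the soil.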

yellow nutsedge = test: Test E preemergence; assay type: in vivo, Cyperus esculentus; settings: for Nutsedge, Yellow plant response rating: scale 0 to 100 (0 no effect, 100 complete control); for Plant response rating, Nutsedge, Yellow: scale 0 to 100, 0 no effect, 100 complete control
Outline: (§2)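 Test chemicals formulated in a non-phytotoxic solvent mixture containing a surfactant were applied preemergence to seeds in silt loam soil or postemergence to plants at the 1- to 4-leaf stage in potting mix. After 14 to 21 days in a greenhouse, injury was visually rated against controls on a 0-100 scale (0 = no effect, 100 = complete control).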

kochia = test: Test E preemergence; assay type: in vivo, Kochia scoparia; settings: for Kochia plant response rating: scale 0 to 100 (0 no effect, 100 complete control); for Plant response rating, Kochia: scale 0 to 100, 0 no effect, 100 complete control
Outline: as §2

corn = test: Test E preemergence; assay type: in vivo, Zea mays; settings: for Corn plant response rating: scale 0 to 100 (0 no effect, 100 complete control); for Plant response rating, Corn: scale 0 to 100, 0 no effect, 100 complete control
Outline: as §2

barnyardgrass = test: Test C flooded paddy test; assay type: in vivo, Echinochloa crus-galli; settings: Flood, scale 0 to 100 (0 no effect, 100 complete control), 13 to 15 days
Outline: as §1

lambsquarters = test: Test E preemergence; assay type: in vivo, Chenopodium album; settings: for Lambsquarters plant response rating: scale 0 to 100 (0 no effect, 100 complete control); for Plant response rating, Lambsquarters: scale 0 to 100, 0 no effect, 100 complete control
Outline: as §2

green foxtail = test: Test E preemergence; assay type: in vivo, Setaria viridis; settings: for Foxtail, Green plant response rating: scale 0 to 100 (0 no effect, 100 complete control); for Plant response rating, Foxtail, Green: scale 0 to 100, 0 no effect, 100 complete control
Outline: as §2

sandbur = test: Test E preemergence; assay type: in vivo, Cenchrus echinatus; settings: for Sandbur plant response rating: scale 0 to 100 (0 no effect, 100 complete control); for Plant response rating, Sandbur: scale 0 to 100, 0 no effect, 100 complete control
Outline: as §2

ducksalad = test: Test C flooded paddy test; assay type: in vivo, Heteranthera limosa; settings: Flood, scale 0 to 100 (0 no effect, 100 complete control), 13 to 15 days
Outline: as §1

velvetleaf = test: Test E preemergence; assay type: in vivo, Abutilon theophrasti; settings: for Velvetleaf plant response rating: scale 0 to 100 (0 no effect, 100 complete control); for Plant response rating, Velvetleaf: scale 0 to 100, 0 no effect, 100 complete control
Outline: as §2

large (Lg) crabgrass = test: Test E preemergence; assay type: in vivo, Digitaria sanguinalis; settings: for Crabgrass, Large plant response rating: scale 0 to 100 (0 no effect, 100 complete control); for Plant response rating, Crabgrass, Large: scale 0 to 100, 0 no effect, 100 complete control
Outline: as §2

Brazilian crabgrass = test: Test E preemergence; assay type: in vivo, Digitaria horizontalis; settings: for Crabgrass, Brazil plant response rating: scale 0 to 100 (0 no effect, 100 complete control); for Plant response rating, Crabgrass, Brazil: scale 0 to 100, 0 no effect, 100 complete control
Outline: as §2

wild poinsettia = test: Test E preemergence; assay type: in vivo, Euphorbia heterophylla; settings: for Poinsettia, Wild plant response rating: scale 0 to 100 (0 no effect, 100 complete control); for Plant response rating, Poinsettia, Wild: scale 0 to 100, 0 no effect, 100 complete control
Outline: as §2

FC(F)(F)c1cnn(-c2c(Cl)cccc2Oc2ncc(Cl)cn2)c1 [Compound 167]
Plant response rating, Rice (rice; 31 g ai/ha): 0
Plant response rating, Rice (rice; 62 g ai/ha): 0
Plant response rating, Rice (rice; 125 g ai/ha): 0
Plant response rating, Rice (rice; 250 g ai/ha): 0
Nutsedge, Yellow plant response rating (yellow nutsedge; 31 g ai/ha): 0
Nutsedge, Yellow plant response rating (yellow nutsedge; 62 g ai/ha): 0
Plant response rating, Nutsedge, Yellow (yellow nutsedge; 125 g ai/ha): 0
Kochia plant response rating (kochia; 31 g ai/ha): 40
Kochia plant response rating (kochia; 62 g ai/ha): 65
Plant response rating, Kochia (kochia; 125 g ai/ha): 90
Corn plant response rating (corn; 16 g ai/ha): 0
Corn plant response rating (corn; 31 g ai/ha): 0
Corn plant response rating (corn; 62 g ai/ha): 15
Plant response rating, Corn (corn; 125 g ai/ha): 25
Plant response rating, Barnyardgrass (barnyardgrass; 31 g ai/ha): 0
Plant response rating, Barnyardgrass (barnyardgrass; 62 g ai/ha): 0
Plant response rating, Barnyardgrass (barnyardgrass; 125 g ai/ha): 0
Plant response rating, Barnyardgrass (barnyardgrass; 250 g ai/ha): 0
Lambsquarters plant response rating (lambsquarters; 31 g ai/ha): 98
Lambsquarters plant response rating (lambsquarters; 62 g ai/ha): 100
Plant response rating, Lambsquarters (lambsquarters; 125 g ai/ha): 100
Foxtail, Green plant response rating (green foxtail; 16 g ai/ha): 10
Foxtail, Green plant response rating (green foxtail; 31 g ai/ha): 35
Foxtail, Green plant response rating (green foxtail; 62 g ai/ha): 70
Plant response rating, Foxtail, Green (green foxtail; 125 g ai/ha): 90
Sandbur plant response rating (sandbur; 31 g ai/ha): 0
Sandbur plant response rating (sandbur; 62 g ai/ha): 20
Plant response rating, Sandbur (sandbur; 125 g ai/ha): 65
Plant response rating, Ducksalad (ducksalad; 31 g ai/ha): 0
Plant response rating, Ducksalad (ducksalad; 62 g ai/ha): 50
Plant response rating, Ducksalad (ducksalad; 125 g ai/ha): 60
Plant response rating, Ducksalad (ducksalad; 250 g ai/ha): 80
Velvetleaf plant response rating (velvetleaf; 31 g ai/ha): 20
Velvetleaf plant response rating (velvetleaf; 62 g ai/ha): 65
Plant response rating, Velvetleaf (velvetleaf; 125 g ai/ha): 100
Crabgrass, Large plant response rating (large (Lg) crabgrass; 16 g ai/ha): 0
Crabgrass, Large plant response rating (large (Lg) crabgrass; 31 g ai/ha): 65
Crabgrass, Large plant response rating (large (Lg) crabgrass; 62 g ai/ha): 100
Plant response rating, Crabgrass, Large (large (Lg) crabgrass; 125 g ai/ha): 100
Crabgrass, Brazil plant response rating (Brazilian crabgrass; 16 g ai/ha): 0
Crabgrass, Brazil plant response rating (Brazilian crabgrass; 31 g ai/ha): 20
Crabgrass, Brazil plant response rating (Brazilian crabgrass; 62 g ai/ha): 75
Plant response rating, Crabgrass, Brazil (Brazilian crabgrass; 125 g ai/ha): 100
Poinsettia, Wild plant response rating (wild poinsettia; 31 g ai/ha): 0
Poinsettia, Wild plant response rating (wild poinsettia; 62 g ai/ha): 20
Plant response rating, Poinsettia, Wild (wild poinsettia; 125 g ai/ha): 25

FC(F)(F)c1cnn(-c2ccccc2Oc2ncc(Br)cn2)c1 [Compound 18, 5-bromo-2-[2-[4-(trifluoromethyl)-1H-pyrazol-1-yl]phenoxy]pyrimidine]
Plant response rating, Rice (rice; 31 g ai/ha): 0
Plant response rating, Rice (rice; 62 g ai/ha): 0
Plant response rating, Rice (rice; 125 g ai/ha): 0
Plant response rating, Rice (rice; 250 g ai/ha): 10
Nutsedge, Yellow plant response rating (yellow nutsedge; 16 g ai/ha): 0
Nutsedge, Yellow plant response rating (yellow nutsedge; 31 g ai/ha): 0
Nutsedge, Yellow plant response rating (yellow nutsedge; 62 g ai/ha): 0
Plant response rating, Nutsedge, Yellow (yellow nutsedge; 125 g ai/ha): 0
Plant response rating, Nutsedge, Yellow (yellow nutsedge; 250 g ai/ha): 10
Kochia plant response rating (kochia; 16 g ai/ha): 0
Kochia plant response rating (kochia; 31 g ai/ha): 0
Kochia plant response rating (kochia; 62 g ai/ha): 80
Plant response rating, Kochia (kochia; 125 g ai/ha): 100
Plant response rating, Kochia (kochia; 250 g ai/ha): 100
Corn plant response rating (corn; 16 g ai/ha): 0
Corn plant response rating (corn; 31 g ai/ha): 0
Corn plant response rating (corn; 62 g ai/ha): 0
Plant response rating, Corn (corn; 125 g ai/ha): 0
Plant response rating, Corn (corn; 250 g ai/ha): 0
Plant response rating, Barnyardgrass (barnyardgrass; 31 g ai/ha): 0
Plant response rating, Barnyardgrass (barnyardgrass; 62 g ai/ha): 0
Plant response rating, Barnyardgrass (barnyardgrass; 125 g ai/ha): 10
Plant response rating, Barnyardgrass (barnyardgrass; 250 g ai/ha): 20
Lambsquarters plant response rating (lambsquarters; 16 g ai/ha): 80
Lambsquarters plant response rating (lambsquarters; 31 g ai/ha): 90
Lambsquarters plant response rating (lambsquarters; 62 g ai/ha): 98
Plant response rating, Lambsquarters (lambsquarters; 125 g ai/ha): 98
Plant response rating, Lambsquarters (lambsquarters; 250 g ai/ha): 98
Foxtail, Green plant response rating (green foxtail; 16 g ai/ha): 0
Foxtail, Green plant response rating (green foxtail; 31 g ai/ha): 0
Foxtail, Green plant response rating (green foxtail; 62 g ai/ha): 65
Plant response rating, Foxtail, Green (green foxtail; 125 g ai/ha): 100
Plant response rating, Foxtail, Green (green foxtail; 250 g ai/ha): 100
Sandbur plant response rating (sandbur; 16 g ai/ha): 0
Sandbur plant response rating (sandbur; 31 g ai/ha): 0
Sandbur plant response rating (sandbur; 62 g ai/ha): 0
Plant response rating, Sandbur (sandbur; 125 g ai/ha): 5
Plant response rating, Sandbur (sandbur; 250 g ai/ha): 75
Plant response rating, Ducksalad (ducksalad; 31 g ai/ha): 80
Plant response rating, Ducksalad (ducksalad; 62 g ai/ha): 80
Plant response rating, Ducksalad (ducksalad; 125 g ai/ha): 85
Plant response rating, Ducksalad (ducksalad; 250 g ai/ha): 90
Velvetleaf plant response rating (velvetleaf; 16 g ai/ha): 25
Velvetleaf plant response rating (velvetleaf; 31 g ai/ha): 95
Velvetleaf plant response rating (velvetleaf; 62 g ai/ha): 100
Plant response rating, Velvetleaf (velvetleaf; 125 g ai/ha): 100
Plant response rating, Velvetleaf (velvetleaf; 250 g ai/ha): 100
Crabgrass, Large plant response rating (large (Lg) crabgrass; 16 g ai/ha): 0
Crabgrass, Large plant response rating (large (Lg) crabgrass; 31 g ai/ha): 0
Crabgrass, Large plant response rating (large (Lg) crabgrass; 62 g ai/ha): 40
Plant response rating, Crabgrass, Large (large (Lg) crabgrass; 125 g ai/ha): 100
Plant response rating, Crabgrass, Large (large (Lg) crabgrass; 250 g ai/ha): 100
Crabgrass, Brazil plant response rating (Brazilian crabgrass; 16 g ai/ha): 0
Crabgrass, Brazil plant response rating (Brazilian crabgrass; 31 g ai/ha): 95
Crabgrass, Brazil plant response rating (Brazilian crabgrass; 62 g ai/ha): 98
Plant response rating, Crabgrass, Brazil (Brazilian crabgrass; 125 g ai/ha): 100
Plant response rating, Crabgrass, Brazil (Brazilian crabgrass; 250 g ai/ha): 100
Poinsettia, Wild plant response rating (wild poinsettia; 16 g ai/ha): 0
Poinsettia, Wild plant response rating (wild poinsettia; 31 g ai/ha): 0
Poinsettia, Wild plant response rating (wild poinsettia; 62 g ai/ha): 0
Plant response rating, Poinsettia, Wild (wild poinsettia; 125 g ai/ha): 0
Plant response rating, Poinsettia, Wild (wild poinsettia; 250 g ai/ha): 50
